Tests used:
[1] = molecular target: T1, Human LRH-1 Ligand Binding Domain (Homo sapiens, UniProt O00482); test: LRH-1 LBD / TIF2 Box3 coactivator peptide recruitment assay (Eu/APC, Lance mode); assay type: biochemical; conditions: n of 44
T1 construct: made in house; host or cells: E. coli BL21(DE3), pRSETa vector
Description: Human LRH-1 Ligand Binding Domain (LRH1 LBD) was expressed in E.coli strain BL21(DE3) as an amino-terminal polyhistidine tagged fusion protein. Expression was under the control of an IPTG inducible T7 promoter. DNA encoding this recombinant protein was subcloned into the pRSETa expression vector (Invitrogen). Sequence encoding the modified polyhistidine tag ([…]) was fused in frame to sequence encoding residues 248-501 of LRH-1. The coding sequence of Human LRH-1 LBD was derived from Genbank accession number U—93553.
Purified LRH-1 LBD was desalted/buffer exchanged using PD-10 gel filtration columns into PBS [100 mM NaPhosphate, pH 7.2, 150 mM NaCl]. LRH-1 LBD was diluted to approximately 10 microM in PBS and five-fold molar excess of NHS-LC-Biotin (Pierce) was added in a minimal volume of PBS. This solution was incubated with gentle mixing for 60 minutes at ambient room temperature. The biotinylation modification reaction was stopped by the addition of 2000× molar excess of Tris-HCl, pH 8. […]
The above solutions are gently mixed together to give a final preparation of 5E-9 M (5 nM) APC-labelled LRH1 LBD and 1E-8 M […] Europium-labelled TIF2 box3 peptide. […] The plates were incubated for 1 hr then read on Wallac Victor2 V in Lance mode for EU/APC. […]

[2] = test system: APOAl mRNA levels in HepG2 cells; test: APOAl mRNA levels in HepG2 cells treated with compound (RT-QPCR); assay type: cell-based; conditions: 48 hours, 10 μm, vs vehicle (DMSO 0.1%), FIG. 4
Procedure: HepG2 and CV1 cells (ATCC, Rockville, Md.) were maintained in Basic Eagle's medium (BME) supplemented with 2 mM glutamine, 1% non-essential amino acids and 10% (v/v) fetal calf serum (FCS) in an atmosphere of 5% CO2 at 37° C.
Total cellular RNA was extracted using TRIZOL (Invitrogen). Real time quantitative PCR (RT-QPCR) assays were performed using an Applied Biosystems 7900 sequence detector. Total RNA (1 μg) was reverse transcribed with random hexamers using Taqman reverse-transcription reagents kit (Applied Biosystems) following the manufacturer's protocol. RNA expression levels were determined by Sybr green assays as described. 18SrRNA transcript was used as an internal control to normalize the variations for RNA amounts. Gene expression levels are expressed relative to 18S rRNA. Apo Al, Apo B, SR-Bl, SHP, LRH-1 and CYP7α mRNA levels were measured using the following oligonucleotides: For 18S: 5′-[…]-3′ and 5′-[…]-3′; for APO Al: 5′-[…]-3′ and 5′-[…]-3′; for Apo B: 5′-[…]-3′ and 5′-[…]-3′; for SR-Bl: 5′-[…]-3′ and 5′-[…]-3′; for SHP: 5′-[…]-3′ and 5′-[…]-3′; for LRH-1: 5′-[…]-3′ and 5′-[…]-3′; for CYP7α:5′-[…]-3′ and 5′-[…]-3′.
HepG2 cells, cultured in 24-well plates, were treated for 48 hours with Compound I, 10 μm or vehicle (DMSO 0.1%) prior to harvest and determination of APOAl mRNA levels by RT-QPOCR as described in Example 1 above.

T1 sequence (O00482 288-541): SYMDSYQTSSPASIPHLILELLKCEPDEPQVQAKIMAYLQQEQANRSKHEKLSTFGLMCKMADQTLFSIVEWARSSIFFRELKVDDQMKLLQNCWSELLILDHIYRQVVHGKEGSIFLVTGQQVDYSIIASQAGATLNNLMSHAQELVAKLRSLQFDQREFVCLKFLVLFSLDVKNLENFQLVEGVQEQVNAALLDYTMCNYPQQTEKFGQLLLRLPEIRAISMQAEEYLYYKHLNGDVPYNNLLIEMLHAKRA
T1 sequence (as listed by the source partner): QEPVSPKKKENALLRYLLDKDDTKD

- EC50 ([1]; LRH1 agonist activity, TIF2 Box3 peptide recruitment, read-out: ave pEC50 (converted)): 257 nM
- ave % basal (maximum observed increase in agonist activity compared to the vehicle control) [1]: 277 % basal
SMILES: CCC/C=C(\CCC)C1=C(c2ccccc2)[C@@]2(Nc3ccccc3)CCC[C@H]2C1 [Compound 1]
- APO Al gene expression (APOAl mRNA levels) [2]: Induces APO Al Gene Expression

Reference: patent US20080227864A1, “Lhr1 Activators as Medicaments” (priority 2004, published 2008)
